Key:
[1] = test system: protocollagen proline hydroxylase; test: Carbon tetrachloride-induced hepatic cirrhosis: protocollagen proline hydroxylase activity in the liver; format: in vivo, Sprague-Dawley rats; conditions: for Protocollagen proline hydroxylase: liver, 4 weeks, CCl4 group 504 ± 87
Experimental: (§1) Female Sprangue-Dawley rats weighing approximately 110 g each were divided into 4 groups. Group I (control) received saline (1 ml/rat) and Groups II, III and IV received 10% CCl4 -olive oil mixture (1 ml/rat) intraperitoneally twice weekly for a total 8 doses. Groups III and IV received P-1894B orally with food for 4 weeks. Average doses of P-1894B in Groups III and IV were 3.25 and 6.16 mg/kg/day, respectively. The rats were sacrificed a day after the last injection and the livers were immediately removed for the assays.
A 10% homogenate of the liver was prepared in 20 mM Tris-HCl buffer, pH 7.5, containing 0.2 M NaCl, 0.1 M glycine, 5×10^-5 M 1,4-dithiothreitol and 0.1% Triton (polyethylene glycol p-isooctylphenyl ether) X-100 using a Polytron homogenizer. The homogenate was centrifuged at 15,000 g for 20 min and the clear supernatant was assayed for proline hydroxylase activity by the method of Hutton et al [Anal. Biochem. 16, 384-394 (1966)]. The protein content of the homogenate was measured by the method of Lowry et al [J. Biol. Chem. 193, 265-275 (1951)] using bovine serum albumin as the standard.

pKa by titrimetry = format: physicochemical; conditions: in 66.7% aqueous DMF
[2] = biological target: T1, protocollagen proline hydroxylase (Gallus gallus, UniProt P16924); test: Protocollagen proline hydroxylase inhibitor activity; format: biochemical; conditions: partially purified enzyme from chick embryos; substrate (Pro-Pro-Gly)5.4H2O
T1 construct: partially purified enzyme preparation obtained from chick embryos; from tissue; host or cells: chick embryos
T1 sequence (P16924 1-516): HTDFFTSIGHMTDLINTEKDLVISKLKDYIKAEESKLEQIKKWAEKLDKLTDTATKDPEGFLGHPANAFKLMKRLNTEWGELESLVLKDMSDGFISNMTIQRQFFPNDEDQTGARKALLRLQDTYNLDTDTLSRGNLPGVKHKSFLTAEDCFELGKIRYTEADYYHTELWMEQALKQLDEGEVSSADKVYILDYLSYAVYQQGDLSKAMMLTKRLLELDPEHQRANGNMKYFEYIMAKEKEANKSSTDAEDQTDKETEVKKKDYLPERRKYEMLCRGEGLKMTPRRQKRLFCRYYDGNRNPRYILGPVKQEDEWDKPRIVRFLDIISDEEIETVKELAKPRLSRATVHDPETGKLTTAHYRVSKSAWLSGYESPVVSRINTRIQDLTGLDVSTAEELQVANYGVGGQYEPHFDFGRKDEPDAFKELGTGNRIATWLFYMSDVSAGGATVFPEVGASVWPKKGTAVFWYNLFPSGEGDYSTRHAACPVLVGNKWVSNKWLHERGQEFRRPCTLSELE
T1 sequence (P09102 23-515 partner): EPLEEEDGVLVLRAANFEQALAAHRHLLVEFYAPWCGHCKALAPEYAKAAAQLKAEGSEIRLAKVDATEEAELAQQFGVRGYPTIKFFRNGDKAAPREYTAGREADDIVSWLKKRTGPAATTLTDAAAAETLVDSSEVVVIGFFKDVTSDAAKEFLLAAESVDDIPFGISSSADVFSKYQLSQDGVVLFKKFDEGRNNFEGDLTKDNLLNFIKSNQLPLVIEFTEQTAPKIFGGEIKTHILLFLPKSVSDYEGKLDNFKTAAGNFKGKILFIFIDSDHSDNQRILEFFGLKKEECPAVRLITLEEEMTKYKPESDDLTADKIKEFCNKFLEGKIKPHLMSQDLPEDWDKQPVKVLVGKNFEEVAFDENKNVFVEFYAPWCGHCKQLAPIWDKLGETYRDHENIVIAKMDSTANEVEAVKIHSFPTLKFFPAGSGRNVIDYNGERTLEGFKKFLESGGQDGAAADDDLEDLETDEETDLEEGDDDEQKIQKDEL

[3] = Body weight of rats in the uterus collagen test; format: in vivo, Sprague-Dawley rats; conditions: 0.3 mg/kg i.p. once daily for 6 days + 17β-estradiol (5 μg); groups of 4 rats
Experimental: (§2) Basically in accordance with a procedure described by R. A. Salvador et al [Arch. Biochem. Biophys. 174, 382 (1976)], 0.3 mg/kg was intraperitoneally administered to Sprague-Dawley rats (female, 3 weeks old) once daily for 6 days and the amounts of collagen and non-collagenous proteins in the uteri were compared with the figures for control.

[4] = Carbon tetrachloride-induced hepatic cirrhosis: body weight; format: in vivo, Sprague-Dawley rats; conditions: 4 weeks
Experimental: as §1

Solubility = format: physicochemical
[5] = test system: hydroxyproline content of the liver (collagen biosynthesis); test: Carbon tetrachloride-induced hepatic cirrhosis: hydroxyproline content of the liver; format: in vivo, Sprague-Dawley rats; conditions: for Hydroxyproline: liver, 4 weeks, CCl4 group 145.8 ± 18.3
Experimental: as §1
Hydroxyproline content of the liver was measured in 6 N HCl hydrolysate (110° C., 22h) by the method of Blumenkrantz et al [Anal. Biochem. 63, 331-340 (1975)].

[6] = test system: collagen biosynthesis (uterus); test: Collagen biosynthesis inhibiting activity in uteri of 17β-estradiol-treated rats; format: in vivo, Sprague-Dawley rats
Experimental: as §2

[7] = 6.16 mg/kg/day, p.o., compared to livers of CCl4-fibrotic rats
[8] = CCl4 + P-1894B 3.25 mg/kg/day orally with food
[9] = CCl4 + P-1894B 6.16 mg/kg/day orally with food, P<0.05 vs CCl4, n=5
[10] = 0.3 mg/kg i.p. once daily for 6 days + 17β-estradiol (5 μg)

C[C@@H]1O[C@@H](O[C@H]2CC[C@H](O[C@H]3[C@H](O)C[C@H](c4ccc5c(c4O)C(=O)C4=C(C5=O)[C@@]5(O)C(=O)C[C@](C)(O[C@H]6CC[C@H](O[C@H]7C=CC(=O)[C@H](C)O7)[C@H](C)O6)C[C@@]5(O)C=C4)O[C@@H]3C)O[C@H]2C)C=CC1=O [P-1894B]
specific activity of protocollagen proline hydroxylase in the liver (in words) [1, 7]: significantly decreased
Protocollagen proline hydroxylase [1, 8]: 457 ± 68 dpm/mg of protein
Protocollagen proline hydroxylase [1, 9]: 357 ± 15 dpm/mg of protein
PKa (pKa by titrimetry): 10.15
concentration required for a 50% inhibition of 100 μg (as protein) of partially purified enzyme [2]: about 7 μg/ml
Body weight of rats [3]: 72 ± 5 g
weight, final ([4]; CCl4 + P-1894B 3.25 mg/kg/day orally with food, initial 112 ± 9): 199 ± 19 g
weight, final ([4]; CCl4 + P-1894B 6.16 mg/kg/day orally with food, initial 111 ± 5): 198 ± 9 g
Solubility (Solubility; in chloroform, dioxane, ethyl acetate, dimethylsulfoxide, acetone, methyl ethyl ketone, pyridine, methanol, ethanol, benzene, toluene, diethyl ether and 0.1 N NaOH): Readily soluble or soluble
Solubility (Solubility; in petroleum ether, n-hexane and cyclohexane): sparingly soluble or insoluble
hydroxyproline content in the liver (in words) [5, 7]: significantly decreased
Hydroxyproline [5, 8]: 132.4 ± 29.6 μg/100 mg of protein
Hydroxyproline [5, 9]: 122.6 ± 14.0 μg/100 mg of protein
inhibition of the biosynthesis of collagen (in words) ([6]; 0.3 mg/kg i.p. once daily for 6 days): inhibited the biosynthesis of collagen specifically and significantly
% Inhibition, Collagen [6, 10]: 78%
% Inhibition, Non-collagenous protein [6, 10]: -21%
Non-collagenous protein in uterus ([6]; 0.3 mg/kg i.p. once daily for 6 days + 17β-estradiol (5 μg), = total protein - collagen, control (2) 24.21 ± 7.21): 26.99 ± 4.67 mg
Collagen in uterus ([6]; 0.3 mg/kg i.p. once daily for 6 days + 17β-estradiol (5 μg), groups of 4 rats, control (2) 4.39 ± 0.16, p < 0.01 vs control (2)): 3.41 ± 0.22 mg
Total protein of uterus ([6]; 0.3 mg/kg i.p. once daily for 6 days + 17β-estradiol (5 μg), groups of 4 rats, control (2) 28.6 ± 7.3): 30.4 ± 5.0 mg

From patent US4260599A, “Antifibrotic substance P-1894B” (Takeda Chemical Industries, Ltd., priority 1978, dated 1981)
